From US20220132854A1, “STABLE LIQUID COMPOSITIONS AND METHODS OF USING THE SAME” (priority 2019, published 2022)

Assay: Storage stability of liquid compositions, 8 weeks at 40° C., loss by HPLC
Type: physicochemical
Settings: same inert ingredients as Composition #7 of Table 3; aged 8 weeks at 40° C.
Experimental: To test stability, the compositions were sealed in a container and stored for 8 weeks at 40° C. The relative percentage loss of halosulfuron-methyl was calculated using high performance liquid chromatography (HPLC). The samples were extracted with solvents and then analyzed with reverse phase HPLC equipped with UV detector. The response from the detector are peak areas (mAu*s). The peak areas were correlated with percentage active ingredients through a standard calibration curve. The percentage of pesticide was calculated through the calibration curve. Chemically stable compositions are those compositions that had less than 5% (w/w) relative loss of halosulfuron-methyl after 8 weeks of storage at 40° C.
The compositions described herein lose 5% (w/w) or less of the pesticide after storing the liquid composition for 8 weeks at 40° C. in a sealed container. Alternatively, the compositions described herein comprise at least 95% (w/w) of the pesticide after storing the liquid composition for 8 weeks at 40° C. in a sealed container. The percent loss is measured by quantitative chromatography, such as High Performance Liquid Chromatography (HPLC).

**Q.** Which “relative loss of thifensulfuron-methyl” value does the source give for `COC(=O)c1sccc1S(=O)(=O)NC(=O)Nc1nc(C)nc(OC)n1` [Thifensulfuron-methyl, thifensulfuron-methyl] here?
**A.** less than 5 % w/w
